According to PubChem BioAssay AID2060891 (Molecular Pharmacology Branch, DTP, NCI, 2025):
pIC50: −log10 of the molar value.

Tested on: K98450-129-R-PDC complex spheroid growth, percent test/control
Assay: Anticancer human tumor K98450-129-R-PDC patient-derived colon adenocarcinoma cell line growth inhibition [RAS]
Details: for pIC50: curve of first compound; for viability, T/C: stronger effect = lower value
Outline: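 Tumour cells grown as complex spheroids with HUVEC endothelial cells and mesenchymal stem cells, treated with RAS pathway inhibitor combinations. Each agent spans half-log steps from near clinical Cmax, or 10 microM where Cmax is unknown.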

[1] = second compound 0.000949 µM, first compound 0.0316 µM
[2] = second compound 0.000949 µM, first compound 0.1 µM
[3] = second compound 0.000949 µM, first compound 0.316 µM
[4] = second compound 0.000949 µM, first compound 1 µM
[5] = second compound 0.000949 µM, first compound 3.16 µM
[6] = second compound 0.000949 µM, first compound 10 µM
[7] = second compound 0.003 µM, first compound 0.0316 µM
[8] = second compound 0.003 µM, first compound 0.1 µM
[9] = second compound 0.003 µM, first compound 0.316 µM
[10] = second compound 0.003 µM, first compound 1 µM
[11] = second compound 0.003 µM, first compound 3.16 µM
[12] = second compound 0.003 µM, first compound 10 µM
[13] = second compound 0.00949 µM, first compound 0.0316 µM
[14] = second compound 0.00949 µM, first compound 0.1 µM
[15] = second compound 0.00949 µM, first compound 0.316 µM
[16] = second compound 0.00949 µM, first compound 1 µM
[17] = second compound 0.00949 µM, first compound 3.16 µM
[18] = second compound 0.00949 µM, first compound 10 µM
[19] = second compound 0.03 µM, first compound 0.0316 µM
[20] = second compound 0.03 µM, first compound 0.1 µM
[21] = second compound 0.03 µM, first compound 0.316 µM
[22] = second compound 0.03 µM, first compound 1 µM
[23] = second compound 0.03 µM, first compound 3.16 µM
[24] = second compound 0.03 µM, first compound 10 µM
[25] = second compound 0.0949 µM, first compound 0.0316 µM
[26] = second compound 0.0949 µM, first compound 0.1 µM
[27] = second compound 0.0949 µM, first compound 0.316 µM
[28] = second compound 0.0949 µM, first compound 1 µM
[29] = second compound 0.0949 µM, first compound 3.16 µM
[30] = second compound 0.0949 µM, first compound 10 µM
[31] = second compound 0.3 µM, first compound 0.0316 µM
[32] = second compound 0.3 µM, first compound 0.1 µM
[33] = second compound 0.3 µM, first compound 0.316 µM
[34] = second compound 0.3 µM, first compound 1 µM
[35] = second compound 0.3 µM, first compound 3.16 µM
[36] = second compound 0.3 µM, first compound 10 µM
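Note: spheroids exposed to agents for seven days before the viability readout.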
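Throughout, for viability, T/C: luminescence used as a proxy for viable cell amount.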

Q: Which results are given for `CC(C)NCC(C(=O)N1CCN(c2ncnc3c2C(C)CC3O)CC1)c1ccc(Cl)cc1` (stereo unspecified) + CCn1c(-c2cccnc2C(C)OC)c2c3cc(ccc31)N1CCOC(CC(NC(=O)C(C(C)C)N(C)C(=O)C3(F)CCN(C(=O)C#CC(C)(C)N(C)C)CC3)C(=O)N3CCCC(N3)C(=O)OCC(C)(C)C2)C1?
A: pIC50 (second compound 0.000949 µM): < 5.00; pIC50 (second compound 0.003 µM): < 5.00; pIC50 (second compound 0.00949 µM): > 7.50; pIC50 (second compound 0.03 µM): > 7.50; pIC50 (second compound 0.0949 µM): > 7.50; pIC50 (second compound 0.3 µM): > 7.50; viability, T/C [1]: 64.3%; viability, T/C [2]: 61.4%; viability, T/C [3]: 83.3%; viability, T/C [4]: 73.7%; viability, T/C [5]: 73%; viability, T/C [6]: 70.4%; viability, T/C [7]: 68.8%; viability, T/C [8]: 46.6%; viability, T/C [9]: 61%; viability, T/C [10]: 51.2%; viability, T/C [11]: 64.1%; viability, T/C [12]: 47%; viability, T/C [13]: 45.4%; viability, T/C [14]: 37.7%; viability, T/C [15]: 42.9%; viability, T/C [16]: 34.6%; viability, T/C [17]: 50.8%; viability, T/C [18]: 39.6%; viability, T/C [19]: 33%; viability, T/C [20]: 39%; viability, T/C [21]: 36.8%; viability, T/C [22]: 34%; viability, T/C [23]: 38.1%; viability, T/C [24]: 35%; viability, T/C [25]: 32.4%; viability, T/C [26]: 42.1%; viability, T/C [27]: 34.7%; viability, T/C [28]: 36.4%; viability, T/C [29]: 36%; viability, T/C [30]: 34.5%; viability, T/C [31]: 31.6%; viability, T/C [32]: 38.5%; viability, T/C [33]: 34.4%; viability, T/C [34]: 32.6%; viability, T/C [35]: 33.7%; viability, T/C [36]: 32.2%

Q: `CC(C)n1nc(-c2ccc3oc(N)nc3c2)c2c(N)ncnc21` + CCn1c(-c2cccnc2C(C)OC)c2c3cc(ccc31)N1CCOC(CC(NC(=O)C(C(C)C)N(C)C(=O)C3(F)CCN(C(=O)C#CC(C)(C)N(C)C)CC3)C(=O)N3CCCC(N3)C(=O)OCC(C)(C)C2)C1 was tested. Which pIC50 (second compound 0.000949 µM) did it give?
A: Its pIC50 is 7.33.

Q: What about the pIC50 (second compound 0.003 µM) of the same compound?
A: Its pIC50 is 8.59.

Q: What about the pIC50 (second compound 0.00949 µM) of the same compound?
A: Its pIC50 is 9.35.

Q: What about the pIC50 (second compound 0.03 µM) of the same compound?
A: Its pIC50 is over 9.50.

Q: What about the pIC50 (second compound 0.0949 µM) of the same compound?
A: The pIC50 was over 9.50.

Q: What about the pIC50 (second compound 0.3 µM) of the same compound?
A: Its pIC50 is over 9.50.

Q: And the viability, T/C (second compound 0.000949 µM, first compound 0.000316 µM)?
A: The viability, T/C was 58%.

Q: And the viability, T/C (second compound 0.000949 µM, first compound 0.001 µM)?
A: Its viability, T/C is 66.9%.

Q: And the viability, T/C (second compound 0.000949 µM, first compound 0.00316 µM)?
A: The viability, T/C was 65.7%.

Q: And the viability, T/C (second compound 0.000949 µM, first compound 0.01 µM)?
A: Its viability, T/C is 63.2%.

Q: What about the viability, T/C [1] of the same compound?
A: Its viability, T/C is 50.5%.

Q: What about the viability, T/C [2] of the same compound?
A: Its viability, T/C is 41.8%.

Q: What about the viability, T/C (second compound 0.003 µM, first compound 0.000316 µM) of the same compound?
A: Its viability, T/C is 58.5%.

Q: What about the viability, T/C (second compound 0.003 µM, first compound 0.001 µM) of the same compound?
A: The viability, T/C was 53.4%.

Q: What about the viability, T/C (second compound 0.003 µM, first compound 0.00316 µM) of the same compound?
A: Its viability, T/C is 53%.

Q: What about the viability, T/C (second compound 0.003 µM, first compound 0.01 µM) of the same compound?
A: The viability, T/C was 38.5%.

Q: And the viability, T/C [7]?
A: Its viability, T/C is 40.6%.

Q: What about the viability, T/C [8] of the same compound?
A: The viability, T/C was 31.9%.

Q: What about the viability, T/C (second compound 0.00949 µM, first compound 0.000316 µM) of the same compound?
A: Its viability, T/C is 52.1%.

Q: And the viability, T/C (second compound 0.00949 µM, first compound 0.001 µM)?
A: Its viability, T/C is 46%.

Q: What about the viability, T/C (second compound 0.00949 µM, first compound 0.00316 µM) of the same compound?
A: The viability, T/C was 34.8%.

Q: And the viability, T/C (second compound 0.00949 µM, first compound 0.01 µM)?
A: Its viability, T/C is 33.3%.

Q: And the viability, T/C [13]?
A: Its viability, T/C is 30.5%.

Q: What about the viability, T/C [14] of the same compound?
A: Its viability, T/C is 28.9%.

Q: What about the viability, T/C (second compound 0.03 µM, first compound 0.000316 µM) of the same compound?
A: Its viability, T/C is 35.2%.

Q: What about the viability, T/C (second compound 0.03 µM, first compound 0.001 µM) of the same compound?
A: The viability, T/C was 40%.

Q: And the viability, T/C (second compound 0.03 µM, first compound 0.00316 µM)?
A: The viability, T/C was 36.5%.

Q: And the viability, T/C (second compound 0.03 µM, first compound 0.01 µM)?
A: The viability, T/C was 23.9%.

Q: What about the viability, T/C [19] of the same compound?
A: The viability, T/C was 29.1%.

Q: And the viability, T/C [20]?
A: The viability, T/C was 25.6%.

Q: And the viability, T/C (second compound 0.0949 µM, first compound 0.000316 µM)?
A: The viability, T/C was 34.3%.

Q: And the viability, T/C (second compound 0.0949 µM, first compound 0.001 µM)?
A: The viability, T/C was 32%.

Q: What about the viability, T/C (second compound 0.0949 µM, first compound 0.00316 µM) of the same compound?
A: The viability, T/C was 32.6%.

Q: What about the viability, T/C (second compound 0.0949 µM, first compound 0.01 µM) of the same compound?
A: The viability, T/C was 28.6%.

Q: What about the viability, T/C [25] of the same compound?
A: The viability, T/C was 30.6%.

Q: What about the viability, T/C [26] of the same compound?
A: Its viability, T/C is 22.7%.

Q: What about the viability, T/C (second compound 0.3 µM, first compound 0.000316 µM) of the same compound?
A: Its viability, T/C is 29.4%.

Q: And the viability, T/C (second compound 0.3 µM, first compound 0.001 µM)?
A: The viability, T/C was 35%.

Q: And the viability, T/C (second compound 0.3 µM, first compound 0.00316 µM)?
A: The viability, T/C was 30.1%.

Q: And the viability, T/C (second compound 0.3 µM, first compound 0.01 µM)?
A: Its viability, T/C is 27.5%.

Q: What about the viability, T/C [31] of the same compound?
A: The viability, T/C was 25.9%.

Q: What about the viability, T/C [32] of the same compound?
A: Its viability, T/C is 23.7%.

Q: What does the source list for `C[C@@H](NC(=O)c1ncnc(N)c1Cl)c1ncc(C(=O)Nc2cc(C(F)(F)F)c(Cl)cn2)s1` + CCn1c(-c2cccnc2C(C)OC)c2c3cc(ccc31)N1CCOC(CC(NC(=O)C(C(C)C)N(C)C(=O)C3(F)CCN(C(=O)C#CC(C)(C)N(C)C)CC3)C(=O)N3CCCC(N3)C(=O)OCC(C)(C)C2)C1?
A: pIC50 (second compound 0.000949 µM): < 5.00; pIC50 (second compound 0.003 µM): < 5.00; pIC50 (second compound 0.00949 µM): < 5.00; pIC50 (second compound 0.03 µM): > 7.50; pIC50 (second compound 0.0949 µM): > 7.50; pIC50 (second compound 0.3 µM): > 7.50; viability, T/C [1]: 87.9%; viability, T/C [2]: 87.2%; viability, T/C [3]: 87%; viability, T/C [4]: 70.2%; viability, T/C [5]: 54.4%; viability, T/C [6]: 61.5%; viability, T/C [7]: 57.9%; viability, T/C [8]: 64.3%; viability, T/C [9]: 63.5%; viability, T/C [10]: 61.6%; viability, T/C [11]: 66.2%; viability, T/C [12]: 53.7%; viability, T/C [13]: 57.8%; viability, T/C [14]: 55%; viability, T/C [15]: 54.5%; viability, T/C [16]: 55.3%; viability, T/C [17]: 59.2%; viability, T/C [18]: 48.6%; viability, T/C [19]: 40.3%; viability, T/C [20]: 44.5%; viability, T/C [21]: 53.6%; viability, T/C [22]: 61.6%; viability, T/C [23]: 54.1%; viability, T/C [24]: 46.9%; viability, T/C [25]: 39.2%; viability, T/C [26]: 40.5%; viability, T/C [27]: 53.3%; viability, T/C [28]: 55%; viability, T/C [29]: 62.3%; viability, T/C [30]: 49.9%; viability, T/C [31]: 32.4%; viability, T/C [32]: 43.9%; viability, T/C [33]: 35.2%; viability, T/C [34]: 53.7%; viability, T/C [35]: 56.3%; viability, T/C [36]: 39.3%
